Measured values: publication PMC10176470, “Engaging a Non-catalytic Cysteine Residue Drives Potent and Selective Inhibition of Caspase-6” (Journal of the American Chemical Society, 2023)

Columns and labels:
Experiment in all cases: SILAC proteomics / in-gel fluorescence, competition of probe 13-t labeling by 3a
[1] = molecular target: proteins of HEK293T cells transiently overexpressing caspase-6 (Homo sapiens, UniProt P12956); details: Comp; protein XRCC6 P12956
[2] = molecular target: proteins of HEK293T cells transiently overexpressing caspase-6 (Homo sapiens, UniProt P62917); details: Comp; protein RPL8 P62917
[3] = molecular target: proteins of HEK293T cells transiently overexpressing caspase-6 (Homo sapiens, UniProt Q7KZF4); details: Comp; protein SND1 Q7KZF4
[4] = molecular target: proteins of HEK293T cells transiently overexpressing caspase-6 (Homo sapiens, UniProt P35606); details: Comp; protein COPB2 P35606
[5] = molecular target: proteins of HEK293T cells transiently overexpressing caspase-6 (Homo sapiens, UniProt P13667); details: Comp; protein PDIA4 P13667
[6] = molecular target: proteins of HEK293T cells transiently overexpressing caspase-6 (Homo sapiens, UniProt Q9NR30); details: Comp; protein DDX21 Q9NR30
[7] = molecular target: proteins of HEK293T cells transiently overexpressing caspase-6 (Homo sapiens, UniProt P13804); details: Comp; protein ETFA P13804
[8] = molecular target: proteins of HEK293T cells transiently overexpressing caspase-6 (Homo sapiens, UniProt P63104); details: Comp; protein YWHAZ P63104
[9] = molecular target: proteins of HEK293T cells transiently overexpressing caspase-6 (Homo sapiens, UniProt Q00839); details: Comp; protein HNRNPU Q00839
[10] = molecular target: proteins of HEK293T cells transiently overexpressing caspase-6 (Homo sapiens, UniProt P46782); details: Comp; protein RPS5 P46782
[11] = molecular target: proteins of HEK293T cells transiently overexpressing caspase-6 (Homo sapiens, UniProt P46779); details: Comp; protein RPL28 P46779
[12] = molecular target: proteins of HEK293T cells transiently overexpressing caspase-6 (Homo sapiens, UniProt Q15393); details: Comp; protein SF3B3 Q15393
[13] = molecular target: T1, proteins of HEK293T cells transiently overexpressing caspase-6 (Homo sapiens, UniProt Q9BQG0); details: Comp; protein MYBBP1A Q9BQG0
T1 sequence (Q9BQG0 1-1328): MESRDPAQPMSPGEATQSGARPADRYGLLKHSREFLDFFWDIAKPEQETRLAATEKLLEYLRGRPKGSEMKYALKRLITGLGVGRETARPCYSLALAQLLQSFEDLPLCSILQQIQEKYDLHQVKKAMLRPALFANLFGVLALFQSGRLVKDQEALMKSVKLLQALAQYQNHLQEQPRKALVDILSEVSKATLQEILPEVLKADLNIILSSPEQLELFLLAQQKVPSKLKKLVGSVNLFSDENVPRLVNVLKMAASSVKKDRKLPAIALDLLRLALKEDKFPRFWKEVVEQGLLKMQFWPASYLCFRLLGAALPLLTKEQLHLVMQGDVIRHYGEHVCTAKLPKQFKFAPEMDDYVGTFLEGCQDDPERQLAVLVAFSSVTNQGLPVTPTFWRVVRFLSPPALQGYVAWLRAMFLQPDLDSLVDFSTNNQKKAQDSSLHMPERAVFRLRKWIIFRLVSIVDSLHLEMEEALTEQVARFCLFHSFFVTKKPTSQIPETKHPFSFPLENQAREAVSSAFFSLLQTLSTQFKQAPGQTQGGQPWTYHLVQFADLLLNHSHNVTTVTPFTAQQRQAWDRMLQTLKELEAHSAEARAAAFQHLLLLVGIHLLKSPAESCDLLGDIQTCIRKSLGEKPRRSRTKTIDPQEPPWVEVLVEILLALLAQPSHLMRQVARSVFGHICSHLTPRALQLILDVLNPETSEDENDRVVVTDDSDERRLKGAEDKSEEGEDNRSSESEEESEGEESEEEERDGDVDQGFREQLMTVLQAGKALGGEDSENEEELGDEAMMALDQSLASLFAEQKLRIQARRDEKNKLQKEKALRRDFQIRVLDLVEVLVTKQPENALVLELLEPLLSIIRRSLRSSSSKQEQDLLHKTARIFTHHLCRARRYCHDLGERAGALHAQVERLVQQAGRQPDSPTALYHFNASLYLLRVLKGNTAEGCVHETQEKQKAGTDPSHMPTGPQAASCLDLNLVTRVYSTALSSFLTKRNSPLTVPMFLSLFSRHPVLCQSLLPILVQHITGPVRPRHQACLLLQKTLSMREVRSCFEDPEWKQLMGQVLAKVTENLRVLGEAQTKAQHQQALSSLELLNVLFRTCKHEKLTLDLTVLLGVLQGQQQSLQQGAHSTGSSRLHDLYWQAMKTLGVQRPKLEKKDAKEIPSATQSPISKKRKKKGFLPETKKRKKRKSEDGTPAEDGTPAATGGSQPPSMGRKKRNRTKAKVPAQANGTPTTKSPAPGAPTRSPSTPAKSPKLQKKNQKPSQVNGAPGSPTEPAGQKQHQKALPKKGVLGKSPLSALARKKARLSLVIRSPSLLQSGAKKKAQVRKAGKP

proteins of HEK293T cells transiently overexpressing caspase-6 (Homo sapiens, UniProt Q00839), sequence (Q00839 whole entry): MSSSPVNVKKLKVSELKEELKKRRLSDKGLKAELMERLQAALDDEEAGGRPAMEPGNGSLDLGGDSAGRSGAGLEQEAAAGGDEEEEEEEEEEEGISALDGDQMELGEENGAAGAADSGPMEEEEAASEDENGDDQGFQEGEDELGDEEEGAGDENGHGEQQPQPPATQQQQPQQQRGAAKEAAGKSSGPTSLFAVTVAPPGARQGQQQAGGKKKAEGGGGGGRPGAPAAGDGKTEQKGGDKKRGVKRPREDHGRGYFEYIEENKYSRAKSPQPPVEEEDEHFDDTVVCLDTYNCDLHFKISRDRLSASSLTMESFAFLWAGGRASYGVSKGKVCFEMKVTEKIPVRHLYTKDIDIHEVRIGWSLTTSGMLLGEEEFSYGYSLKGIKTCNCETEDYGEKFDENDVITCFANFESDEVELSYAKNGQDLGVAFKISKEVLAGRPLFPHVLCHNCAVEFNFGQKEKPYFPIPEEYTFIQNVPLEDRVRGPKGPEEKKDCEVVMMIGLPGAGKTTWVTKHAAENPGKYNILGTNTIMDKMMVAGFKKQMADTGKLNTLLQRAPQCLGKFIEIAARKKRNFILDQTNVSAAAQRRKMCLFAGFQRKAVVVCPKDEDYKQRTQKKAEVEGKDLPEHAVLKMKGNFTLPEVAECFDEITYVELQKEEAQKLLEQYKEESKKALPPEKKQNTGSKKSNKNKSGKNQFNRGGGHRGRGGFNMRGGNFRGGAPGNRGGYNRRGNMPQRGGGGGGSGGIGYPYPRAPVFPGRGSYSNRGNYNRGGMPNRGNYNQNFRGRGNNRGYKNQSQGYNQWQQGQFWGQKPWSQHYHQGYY
proteins of HEK293T cells transiently overexpressing caspase-6 (Homo sapiens, UniProt P13667), sequence (P13667 21-645): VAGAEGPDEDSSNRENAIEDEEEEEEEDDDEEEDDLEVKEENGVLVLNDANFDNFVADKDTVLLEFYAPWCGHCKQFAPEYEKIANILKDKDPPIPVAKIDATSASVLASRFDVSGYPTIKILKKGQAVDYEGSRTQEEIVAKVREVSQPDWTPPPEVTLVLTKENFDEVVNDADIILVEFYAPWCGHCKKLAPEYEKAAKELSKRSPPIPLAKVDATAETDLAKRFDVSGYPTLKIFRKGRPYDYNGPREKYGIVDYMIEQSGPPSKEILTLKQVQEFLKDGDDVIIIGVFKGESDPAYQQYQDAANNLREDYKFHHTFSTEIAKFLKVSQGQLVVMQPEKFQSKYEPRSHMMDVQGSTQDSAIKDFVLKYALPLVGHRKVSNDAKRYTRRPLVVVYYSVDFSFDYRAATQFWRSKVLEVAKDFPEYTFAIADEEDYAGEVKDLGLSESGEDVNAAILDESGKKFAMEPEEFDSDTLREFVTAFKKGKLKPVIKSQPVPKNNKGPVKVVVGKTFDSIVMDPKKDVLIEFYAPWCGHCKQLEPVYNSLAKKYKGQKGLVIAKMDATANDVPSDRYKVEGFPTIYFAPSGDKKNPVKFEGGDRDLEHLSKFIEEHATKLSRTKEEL
proteins of HEK293T cells transiently overexpressing caspase-6 (Homo sapiens, UniProt P63104), sequence (P63104 whole entry): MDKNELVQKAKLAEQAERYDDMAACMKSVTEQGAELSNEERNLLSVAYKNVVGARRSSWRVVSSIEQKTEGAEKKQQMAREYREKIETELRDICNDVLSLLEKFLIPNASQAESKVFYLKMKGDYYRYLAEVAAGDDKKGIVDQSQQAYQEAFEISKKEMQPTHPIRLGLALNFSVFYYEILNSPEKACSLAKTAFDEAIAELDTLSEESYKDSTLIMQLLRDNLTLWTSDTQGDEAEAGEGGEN
proteins of HEK293T cells transiently overexpressing caspase-6 (Homo sapiens, UniProt P35606), sequence (P35606 whole entry): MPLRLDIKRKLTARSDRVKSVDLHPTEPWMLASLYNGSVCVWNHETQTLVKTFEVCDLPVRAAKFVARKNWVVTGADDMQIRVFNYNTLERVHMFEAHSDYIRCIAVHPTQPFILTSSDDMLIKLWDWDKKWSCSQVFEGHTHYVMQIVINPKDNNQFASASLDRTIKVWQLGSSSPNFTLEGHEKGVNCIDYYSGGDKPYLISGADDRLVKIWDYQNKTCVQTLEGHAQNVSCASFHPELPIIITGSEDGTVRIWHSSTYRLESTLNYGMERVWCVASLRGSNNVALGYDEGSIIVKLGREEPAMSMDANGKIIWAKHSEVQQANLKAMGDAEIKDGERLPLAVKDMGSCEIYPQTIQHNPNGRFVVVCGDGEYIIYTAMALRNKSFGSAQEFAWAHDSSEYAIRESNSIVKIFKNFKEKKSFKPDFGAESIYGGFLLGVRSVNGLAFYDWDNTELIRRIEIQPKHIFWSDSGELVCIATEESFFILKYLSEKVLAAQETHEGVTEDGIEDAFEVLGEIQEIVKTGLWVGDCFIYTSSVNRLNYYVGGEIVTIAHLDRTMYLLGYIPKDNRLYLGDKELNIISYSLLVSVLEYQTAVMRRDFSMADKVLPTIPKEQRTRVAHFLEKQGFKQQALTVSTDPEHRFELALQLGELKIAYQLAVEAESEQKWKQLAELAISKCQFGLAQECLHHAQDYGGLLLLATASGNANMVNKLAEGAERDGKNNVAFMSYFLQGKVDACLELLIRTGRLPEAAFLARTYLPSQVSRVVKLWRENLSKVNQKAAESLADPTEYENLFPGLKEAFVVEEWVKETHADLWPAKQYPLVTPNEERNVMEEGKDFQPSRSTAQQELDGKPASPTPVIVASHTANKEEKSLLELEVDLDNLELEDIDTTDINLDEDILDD
proteins of HEK293T cells transiently overexpressing caspase-6 (Homo sapiens, UniProt Q7KZF4), sequence (Q7KZF4 whole entry): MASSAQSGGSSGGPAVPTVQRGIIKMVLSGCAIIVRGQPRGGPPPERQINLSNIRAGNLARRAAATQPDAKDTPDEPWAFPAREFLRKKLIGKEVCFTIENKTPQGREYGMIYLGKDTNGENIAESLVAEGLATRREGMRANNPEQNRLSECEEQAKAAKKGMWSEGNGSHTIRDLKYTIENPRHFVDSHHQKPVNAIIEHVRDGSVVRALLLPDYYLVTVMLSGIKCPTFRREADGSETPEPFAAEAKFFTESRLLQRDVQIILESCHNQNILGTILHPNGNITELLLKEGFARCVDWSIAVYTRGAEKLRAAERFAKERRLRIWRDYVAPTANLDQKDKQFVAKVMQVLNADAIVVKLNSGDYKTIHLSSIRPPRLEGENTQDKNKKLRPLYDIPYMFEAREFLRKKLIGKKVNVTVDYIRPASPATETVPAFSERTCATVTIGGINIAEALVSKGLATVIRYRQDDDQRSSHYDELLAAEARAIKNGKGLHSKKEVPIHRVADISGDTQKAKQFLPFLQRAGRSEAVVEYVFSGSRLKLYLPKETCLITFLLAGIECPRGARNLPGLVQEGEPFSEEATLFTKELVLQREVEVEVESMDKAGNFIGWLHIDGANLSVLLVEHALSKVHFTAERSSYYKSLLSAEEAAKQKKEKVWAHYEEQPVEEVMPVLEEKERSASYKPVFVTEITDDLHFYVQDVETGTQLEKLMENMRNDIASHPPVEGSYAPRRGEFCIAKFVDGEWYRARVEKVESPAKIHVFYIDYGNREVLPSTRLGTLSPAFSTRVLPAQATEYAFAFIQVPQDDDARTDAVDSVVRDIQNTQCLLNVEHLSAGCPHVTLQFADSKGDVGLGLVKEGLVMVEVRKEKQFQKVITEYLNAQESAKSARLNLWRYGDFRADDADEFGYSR
proteins of HEK293T cells transiently overexpressing caspase-6 (Homo sapiens, UniProt P12956), sequence (P12956 whole entry): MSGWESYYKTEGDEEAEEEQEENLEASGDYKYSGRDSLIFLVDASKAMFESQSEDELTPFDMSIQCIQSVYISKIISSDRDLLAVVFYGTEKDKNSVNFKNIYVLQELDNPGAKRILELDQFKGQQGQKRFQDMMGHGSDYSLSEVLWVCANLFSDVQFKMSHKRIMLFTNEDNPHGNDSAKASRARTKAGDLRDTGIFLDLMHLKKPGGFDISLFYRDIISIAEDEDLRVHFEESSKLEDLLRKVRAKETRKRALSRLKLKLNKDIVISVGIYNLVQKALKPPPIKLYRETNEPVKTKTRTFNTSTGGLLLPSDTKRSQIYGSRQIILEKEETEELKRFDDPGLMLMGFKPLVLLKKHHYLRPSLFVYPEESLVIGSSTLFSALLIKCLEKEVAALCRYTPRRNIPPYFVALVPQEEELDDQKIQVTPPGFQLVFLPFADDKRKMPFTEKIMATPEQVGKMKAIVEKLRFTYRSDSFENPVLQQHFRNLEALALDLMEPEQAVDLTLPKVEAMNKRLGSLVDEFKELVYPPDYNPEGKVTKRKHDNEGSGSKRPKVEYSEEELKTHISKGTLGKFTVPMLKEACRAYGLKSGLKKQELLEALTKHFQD
proteins of HEK293T cells transiently overexpressing caspase-6 (Homo sapiens, UniProt Q9NR30), sequence (Q9NR30 whole entry): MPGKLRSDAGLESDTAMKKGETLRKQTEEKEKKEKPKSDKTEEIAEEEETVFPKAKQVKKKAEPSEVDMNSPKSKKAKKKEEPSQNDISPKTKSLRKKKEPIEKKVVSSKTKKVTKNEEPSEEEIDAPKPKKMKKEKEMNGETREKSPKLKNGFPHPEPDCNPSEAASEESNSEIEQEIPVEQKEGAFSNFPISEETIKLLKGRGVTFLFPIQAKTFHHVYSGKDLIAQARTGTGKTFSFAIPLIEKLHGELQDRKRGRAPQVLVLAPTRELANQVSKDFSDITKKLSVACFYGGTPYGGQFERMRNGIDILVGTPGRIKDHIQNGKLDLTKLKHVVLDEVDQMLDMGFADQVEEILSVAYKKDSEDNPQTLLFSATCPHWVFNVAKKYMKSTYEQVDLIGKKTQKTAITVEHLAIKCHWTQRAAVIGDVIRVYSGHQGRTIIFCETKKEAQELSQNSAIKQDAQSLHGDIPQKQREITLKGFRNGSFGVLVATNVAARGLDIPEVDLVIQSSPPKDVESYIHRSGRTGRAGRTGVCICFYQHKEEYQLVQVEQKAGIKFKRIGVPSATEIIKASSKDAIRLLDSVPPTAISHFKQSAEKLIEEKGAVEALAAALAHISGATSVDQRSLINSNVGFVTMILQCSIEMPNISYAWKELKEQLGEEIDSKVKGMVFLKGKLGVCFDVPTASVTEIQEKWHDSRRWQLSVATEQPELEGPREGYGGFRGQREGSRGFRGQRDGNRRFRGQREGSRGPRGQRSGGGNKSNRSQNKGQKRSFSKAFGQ

In the case of `C=CS(=O)(=O)N1C[C@H](C(=O)Nc2ccc(OC(F)(F)F)cc2)C[C@@H](c2ccccc2)C1` [3a], the enrich.exp.med [1] is reported as 0.7902, the enrich.exp.med [2] is reported as 0.8074 and the enrich.exp.med [3] is reported as 0.6493. For the same compound, the enrich.exp.med [4] was 0.6156, the enrich.exp.med [5] was 0.6419 and the enrich.exp.med [6] was 0.6506. The enrich.exp.med [7] was 0.7888, the enrich.exp.med [8] was 0.6236 and the enrich.exp.med [9] was 0.6324. It also gave an enrich.exp.med [10] of 0.6107, an enrich.exp.med [11] of 0.6162 and an enrich.exp.med [12] of 0.5835. The enrich.exp.med [13] was 0.8156.
